Results as given in PubChem BioAssay (NCI).
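Interpolation was linear, between the two tested concentrations surrounding the appropriate level; five concentrations were tested over 48 hours in 96-well plates. The concentration for full growth arrest is given as TGI.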

Tests used:
Test in all cases: NCI-60 cell line screen, 48 h
A498 renal = system: A498 renal
ACHN renal = system: ACHN renal
DLD-1 colon = system: DLD-1 colon
DMS 114 small cell lung = system: DMS 114 small cell lung
DMS 273 small cell lung = system: DMS 273 small cell lung
IGROV1 ovarian = system: IGROV1 ovarian
KM20L2 colon = system: KM20L2 colon
LOX IMVI melanoma = system: LOX IMVI melanoma
LXFL 529 NSCLC = system: LXFL 529 NSCLC
M19-MEL melanoma = system: M19-MEL melanoma
OVCAR-4 ovarian = system: OVCAR-4 ovarian
SK-MEL-28 melanoma = system: SK-MEL-28 melanoma
SNB-78 CNS = system: SNB-78 CNS
UACC-257 melanoma = system: UACC-257 melanoma
XF 498 CNS = system: XF 498 CNS
DU-145 prostate = system: DU-145 prostate
HOP-18 NSCLC = system: HOP-18 NSCLC
MCF7 breast = system: MCF7 breast
MDA-MB-435 = system: MDA-MB-435

Row | Structure (SMILES) | TGI (A498 renal) [µM] | TGI (ACHN renal) [µM] | TGI (DLD-1 colon) [µM] | TGI (DMS 114 small cell lung) [µM] | TGI (DMS 273 small cell lung) [µM] | TGI (IGROV1 ovarian) [µM] | TGI (KM20L2 colon) [µM] | TGI (LOX IMVI melanoma) [µM] | TGI (LXFL 529 NSCLC) [µM] | TGI (M19-MEL melanoma) [µM] | TGI (OVCAR-4 ovarian) [µM] | TGI (SK-MEL-28 melanoma) [µM] | TGI (SNB-78 CNS) [µM] | TGI (UACC-257 melanoma) [µM] | TGI (XF 498 CNS) [µM] | TGI (DU-145 prostate) [µM] | TGI (HOP-18 NSCLC) [µM] | TGI (MCF7 breast) [µM] | TGI (MDA-MB-435) [µM]
1 | O=c1[nH]nc2c3n[nH]c(=O)n3c3ccccc3n12 | > 100 | > 100 | > 100 | > 100 | > 100 | > 100 | > 100 | > 100 | > 100 | > 100 | > 100 | > 100 | > 100 | > 100 | > 100 |  |  |  | 
2 | COc1ccccc1OCc1nnc(SCC(=O)O)n1-c1ccccc1 | > 100 | > 100 | > 100 | > 100 | > 100 | > 100 | > 100 | > 100 | > 100 |  | > 100 | > 100 | > 100 | > 100 | > 100 |  |  |  | 
3 | COc1cc2c(cc1OC)[C@]1(O)C(=O)c3ccc4c(c3O[C@@H]1CO2)C[C@H](C(C)(C)O)O4 | > 100 | > 100 | > 100 | > 100 | > 100 | > 100 | > 100 | > 100 | > 100 | > 100 |  | > 100 | > 100 | > 100 | > 100 |  |  |  | 
4 | c1ccc(SCCP(CCP(c2ccccc2)c2ccccc2)c2ccccc2)cc1 (stereo unspecified) |  | > 76 | > 100 | 33.2 | 13.6 | > 100 |  |  | 23.3 | > 100 | 97.1 | > 100 | > 100 | > 74.7 | 8.15 | > 100 | 14 | > 100 | > 100
5 | CCCN(CCC)C(=O)Cc1c2n(c3ccccc13)CCCc1ccccc1-2 |  | 25.1 | 26.5 | 24.1 | 23.2 |  | 27.9 | 29.1 | 26.6 | 29.5 | 26.2 | 29.9 | 27.6 | 27 | 28.8 |  | 30.3 |  | 
6 | O=C1c2ccccc2N2OC3C4CCC(C4)C3C12c1ccccc1 (stereo unspecified) | > 100 | > 100 | > 100 | > 100 | > 100 | > 100 | > 100 |  | > 100 | > 100 | > 100 | > 100 |  | > 100 |  |  | > 100 |  | 
7 | O=C(Cc1ccccc1)NN1C(=O)C(Cl)C1c1cc(Br)cc(Br)c1O (stereo unspecified) |  | > 100 | > 100 | 17.8 | 65.2 | 58.9 | > 100 | 40 | 50 | 63.2 | 80.4 | 35.3 | 83 | 39.4 | 79.3 |  | 31.4 |  | 
